# From patent US12391737B2, “Soluble NPY2 receptor agonists” (Boehringer Ingelheim International GmbH, priority 2020, dated 2025)
# *1 amine or outer side, *2 acyl side, *3 side chain or, on linkers, in order; H or OH if unused. Where a SMILES comes first, the peptide text is derived from it. Side-chain parts run from the residue outwards. The star is where a group is joined. C18 diacid = O=C(O)CCCCCCCCCCCCCCCCC(=O)*; γGlu = O=C(O)[C@H](CCC(=O)[*:2])N[*:1]; Isovaleryl = CC(C)CC(=O)*; Ahx = NCCCCCC(=O)O
# Legend:
# Solubility determination = settings: for Sol6: pH 6; for Sol7: pH 7
# Method in brief: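 Solubility is derived from the ratio of reversed-phase peak areas, filtered sample over a control dissolved at 1 mg/ml in 50% acetonitrile. Peptides are agitated for 2 hours at room temperature in 0.1 M sodium diphosphate at pH 6.4 or 7.0, aiming at 10 mg/ml.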
# [1] = biological target: T1, Human Neuropeptide Y2 Receptor (Homo sapiens, UniProt P49146); experiment: Radioligand binding competition assay (RLB); settings: Table 3, 125I-PYY(1-36) competition; read-out: Ki
# T1 construct: purchased CHEMICON HTS066M
# T1 sequence (P49146 1-381): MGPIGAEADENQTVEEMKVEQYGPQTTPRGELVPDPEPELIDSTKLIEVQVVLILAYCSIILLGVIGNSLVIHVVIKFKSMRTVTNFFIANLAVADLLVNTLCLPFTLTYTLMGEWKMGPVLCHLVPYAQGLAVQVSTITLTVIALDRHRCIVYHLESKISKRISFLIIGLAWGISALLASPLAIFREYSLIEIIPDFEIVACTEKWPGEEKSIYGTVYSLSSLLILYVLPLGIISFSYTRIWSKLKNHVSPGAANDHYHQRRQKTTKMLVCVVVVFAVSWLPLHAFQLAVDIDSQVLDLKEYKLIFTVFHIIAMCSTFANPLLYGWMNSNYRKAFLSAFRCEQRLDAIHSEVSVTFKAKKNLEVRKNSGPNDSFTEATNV
# Method in brief: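 Filtration competition binding on membranes from cells expressing the receptor, 0.5 μg protein/well, in 50 mM HEPES, 5 mM MgCl2, 1 mM CaCl2, pH 7.4, with 0.2% ovalbumin. Incubation ran 2 h at room temperature, followed by GF/C filtration and scintillation counting. IC50 came from nonlinear sigmoidal fits.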
SMILES,Sol6 (Solubility determination),Sol7 (Solubility determination),Ki [1]
"CC[C@H](C)[C@H](NC(=O)[C@H](Cc1ccc(O)cc1)NC(=O)[C@H](Cc1ccc(O)cc1)NC(=O)[C@H](CCCNC(=N)N)NC(=O)[C@H](CCC(N)=O)NC(=O)[C@H](CC(C)C)NC(=O)[C@H](CCC(=O)O)NC(=O)[C@H](CCC(=O)O)NC(=O)[C@@H]1CCCN1C(=O)[C@@H](NC(=O)[C@H](C)NC(=O)[C@H](CC(=O)O)NC(=O)[C@H](CCC(=O)O)NC(=O)[C@H](CCC(=O)O)NC(=O)[C@@H]1CCCN1C(=O)[C@H](CCCCNC(=O)CCCCCNC(=O)CC[C@H](NC(=O)CCCCCCCCCCCCCCCCC(=O)O)C(=O)O)NC(=O)[C@H](C)NC(=O)[C@@H]1CCCN1C(=O)[C@H](C)NC(=O)CC(C)C)[C@@H](C)O)C(=O)N[C@@H](CO)C(=O)N[C@@H](CC(C)C)C(=O)N[C@@H](CCCNC(=N)N)C(=O)N[C@@H](Cc1c[nH]cn1)C(=O)N[C@@H](Cc1ccc(O)cc1)C(=O)N[C@@H](Cc1ccc(O)cc1)C(=O)N[C@@H](CC(N)=O)C(=O)N[C@@H](Cc1c[nH]c2ccccc12)C(=O)N[C@@H](CC(C)C)C(=O)N[C@H](C(=O)N[C@@H](CCCNC(=N)N)C(=O)N[C@@H](CCC(N)=O)C(=O)N[C@@H](CCCNC(=N)N)C(=O)N[C@@H](Cc1ccc(O)cc1)C(N)=O)[C@@H](C)O [Compound 190, N{alpha-4}-(3-methylbutanoyl)-N{epsilon-7}-(6-[(4S)-4-carboxy-4-(17-carboxyheptadecanamido)butanamido]hexanoyl)-[4A,6A,7K,9E,13T,18Q,22I,28Y,30W,31L]-hPYY(4-36)]",8.4 mg/mL,8.4 mg/mL,1.95 nM
"CC[C@H](C)[C@H](NC(=O)[C@H](CCC(=O)O)NC(=O)[C@H](CCC(=O)O)NC(=O)[C@@H]1CCCN1C(=O)[C@@H](NC(=O)[C@H](C)NC(=O)[C@H](CC(=O)O)NC(=O)[C@H](CCC(=O)O)NC(=O)[C@H](CCC(=O)O)NC(=O)[C@@H]1CCCN1C(=O)[C@H](CCCCNC(=O)CCCCCNC(=O)CC[C@H](NC(=O)CCCCCCCCCCCCCCCCC(=O)O)C(=O)O)NC(=O)[C@H](CCC(=O)O)NC(=O)[C@@H]1CCCN1C(=O)[C@H](C)NC(=O)CC(C)C)[C@@H](C)O)C(=O)N[C@@H](CCC(N)=O)C(=O)N[C@@H](CCCNC(=N)N)C(=O)N[C@@H](Cc1ccc(O)cc1)C(=O)N[C@@H](Cc1ccc(O)cc1)C(=O)N[C@@H](CCC(=O)O)C(=O)N[C@@H](CO)C(=O)N[C@@H](CC(C)C)C(=O)N[C@@H](CCCNC(=N)N)C(=O)N[C@@H](Cc1c[nH]cn1)C(=O)N[C@@H](Cc1ccc(O)cc1)C(=O)N[C@@H](Cc1ccc(O)cc1)C(=O)N[C@@H](CC(N)=O)C(=O)N[C@@H](Cc1c[nH]c2ccccc12)C(=O)N[C@@H](CC(C)C)C(=O)N[C@H](C(=O)N[C@@H](CCCNC(=N)N)C(=O)N[C@@H](CCC(N)=O)C(=O)N[C@@H](CCCNC(=N)N)C(=O)N[C@@H](Cc1ccc(O)cc1)C(N)=O)[C@@H](C)O [Compound 191, N{alpha-4}-(3-methylbutanoyl)-N{epsilon-7}-(6-[(4S)-4-carboxy-4-(17-carboxyheptadecanamido)butanamido]hexanoyl)-[4A,7K,9E,13T,17I,18Q,22E,28Y,30W,31L]-hPYY(4-36)]",>10.0 mg/mL,>10.0 mg/mL,8.32 nM
"CC(C)CC(=O)N[C@@H](C)C(=O)N1CCC[C@H]1C(=O)N[C@@H](CCC(=O)O)C(=O)N[C@@H](CCCCNC(=O)CCCCCNC(=O)CC[C@H](NC(=O)CCCCCCCCCCCCCCCCC(=O)O)C(=O)O)C(=O)N1CCC[C@H]1C(=O)N[C@@H](CCC(=O)O)C(=O)N[C@@H](C)C(=O)N1CCC[C@H]1C(=O)N[C@@H](C)C(=O)N[C@@H](CO)C(=O)N1CCC[C@H]1C(=O)N[C@@H](CCC(=O)O)C(=O)N[C@@H](CCC(=O)O)C(=O)N[C@@H](CC(C)C)C(=O)N[C@@H](CCC(N)=O)C(=O)N[C@@H](CCCNC(=N)N)C(=O)N[C@@H](Cc1ccc(O)cc1)C(=O)N[C@@H](Cc1ccc(O)cc1)C(=O)N[C@H](C(=O)N[C@@H](CO)C(=O)N[C@@H](CC(C)C)C(=O)N[C@@H](CCCNC(=N)N)C(=O)N[C@@H](Cc1c[nH]cn1)C(=O)N[C@@H](Cc1ccc(O)cc1)C(=O)N[C@@H](Cc1ccc(O)cc1)C(=O)N[C@@H](CC(N)=O)C(=O)N[C@@H](Cc1c[nH]c2ccccc12)C(=O)N[C@@H](CC(C)C)C(=O)N[C@H](C(=O)N[C@@H](CCCNC(=N)N)C(=O)N[C@@H](CCC(N)=O)C(=O)N[C@@H](CCCNC(=N)N)C(=O)N[C@@H](Cc1ccc(O)cc1)C(N)=O)[C@@H](C)O)C(C)C [Compound 192, N{alpha-4}-(3-methylbutanoyl)-N{epsilon-7}-(6-[(4S)-4-carboxy-4-(17-carboxyheptadecanamido)butanamido]hexanoyl)-[4A,7K,9E,10A,11P,18Q,22V,28Y,30W,31L]-hPYY(4-36)] (Isovaleryl-APEK([Ahx-γGlu-C18 diacid])PEAPASPEELQRYYVSLRHYYNWLTRQRY-NH2)",0.0 mg/mL,9.0 mg/mL,0.74 nM
"CC[C@H](C)[C@H](NC(=O)[C@H](CCC(=O)O)NC(=O)[C@H](CCC(=O)O)NC(=O)[C@@H]1CCCN1C(=O)[C@H](CCC(=O)O)NC(=O)[C@H](C)NC(=O)[C@H](CC(=O)O)NC(=O)[C@H](C)NC(=O)[C@H](CCC(=O)O)NC(=O)[C@@H]1CCCN1C(=O)[C@H](CCCCNC(=O)CCCCCNC(=O)CC[C@H](NC(=O)CCCCCCCCCCCCCCCCC(=O)O)C(=O)O)NC(=O)[C@H](C)NC(=O)[C@@H]1CCCN1C(=O)[C@H](C)NC(=O)CC(C)C)C(=O)N[C@@H](CCC(N)=O)C(=O)N[C@@H](CCCNC(=N)N)C(=O)N[C@@H](Cc1ccc(O)cc1)C(=O)N[C@@H](Cc1ccc(O)cc1)C(=O)N[C@H](C(=O)N[C@@H](CO)C(=O)N[C@@H](CC(C)C)C(=O)N[C@@H](CCCNC(=N)N)C(=O)N[C@@H](Cc1c[nH]cn1)C(=O)N[C@@H](Cc1ccc(O)cc1)C(=O)N[C@@H](Cc1ccc(O)cc1)C(=O)N[C@@H](CC(N)=O)C(=O)N[C@@H](Cc1c[nH]c2ccccc12)C(=O)N[C@@H](CC(C)C)C(=O)N[C@H](C(=O)N[C@@H](CCCNC(=N)N)C(=O)N[C@@H](CCC(N)=O)C(=O)N[C@@H](CCCNC(=N)N)C(=O)N[C@@H](Cc1ccc(O)cc1)C(N)=O)[C@@H](C)O)C(C)C [Compound 198, N{alpha-4}-(3-methylbutanoyl)-N{epsilon-7}-(6-[(4S)-4-carboxy-4-(17-carboxyheptadecanamido)butanamido]hexanoyl)-[4A,6A,7K,9E,10A,13E,17I,18Q,22V,28Y,30W,31L]-hPYY(4-36)]",>10.0 mg/mL,>10.0 mg/mL,1.38 nM
"CC(C)CC(=O)N[C@@H](C)C(=O)N1CCC[C@H]1C(=O)N[C@@H](C)C(=O)N[C@@H](CCCCNC(=O)CCCCCNC(=O)CC[C@H](NC(=O)CCCCCCCCCCCCCCCCC(=O)O)C(=O)O)C(=O)N1CCC[C@H]1C(=O)N[C@@H](CCC(=O)O)C(=O)N[C@@H](CCC(=O)O)C(=O)N[C@@H](CCC(=O)O)C(=O)N[C@@H](C)C(=O)N[C@@H](CO)C(=O)N1CCC[C@H]1C(=O)N[C@@H](CCC(=O)O)C(=O)N[C@@H](CCC(=O)O)C(=O)N[C@@H](CC(C)C)C(=O)N[C@@H](CCC(N)=O)C(=O)N[C@@H](CCCNC(=N)N)C(=O)N[C@@H](Cc1ccc(O)cc1)C(=O)N[C@@H](Cc1ccc(O)cc1)C(=O)N[C@H](C(=O)N[C@@H](CO)C(=O)N[C@@H](CC(C)C)C(=O)N[C@@H](CCCNC(=N)N)C(=O)N[C@@H](Cc1c[nH]cn1)C(=O)N[C@@H](Cc1ccc(O)cc1)C(=O)N[C@@H](Cc1ccc(O)cc1)C(=O)N[C@@H](CC(N)=O)C(=O)N[C@@H](Cc1c[nH]c2ccccc12)C(=O)N[C@@H](CC(C)C)C(=O)N[C@H](C(=O)N[C@@H](CCCNC(=N)N)C(=O)N[C@@H](CCC(N)=O)C(=O)N[C@@H](CCCNC(=N)N)C(=O)N[C@@H](Cc1ccc(O)cc1)C(N)=O)[C@@H](C)O)C(C)C [Compound 199, N{alpha-4}-(3-methylbutanoyl)-N{epsilon-7}-(6-[(4S)-4-carboxy-4-(17-carboxyheptadecanamido)butanamido]hexanoyl)-[4A,6A,7K,9E,11E,18Q,22V,28Y,30W,31L]-hPYY(4-36)]",9.0 mg/mL,9.1 mg/mL,2.87 nM
